Results as given in patent US20210238170A1, “5,5-Difluoro- and 5-Fluoro-5-Methyl-C-Glycoside Derivatives Useful As Dual SGLT1 / SGLT2 Modulators” (Janssen Pharmaceutica NV, priority 2018, published 2021).

Assays:
human SGLT2 = target: T1, human SGLT2 (Homo sapiens, UniProt P31639); experiment: SGLT2 in vitro assay: Na-dependent 14C-AMG uptake in CHO-K1 cells stably expressing human SGLT2; type: cell-based; conditions: CHO-K1 cells stably expressing human SGLT2, 14C-AMG uptake; for inhibition at 0.3 µM: read-out: SGLT2 % Inh @ 0.3 μM; for IC50: compounds of formula (I) where R0 is fluoro
T1 construct: expressed in transfected cells
T1 sequence (P31639 1-672): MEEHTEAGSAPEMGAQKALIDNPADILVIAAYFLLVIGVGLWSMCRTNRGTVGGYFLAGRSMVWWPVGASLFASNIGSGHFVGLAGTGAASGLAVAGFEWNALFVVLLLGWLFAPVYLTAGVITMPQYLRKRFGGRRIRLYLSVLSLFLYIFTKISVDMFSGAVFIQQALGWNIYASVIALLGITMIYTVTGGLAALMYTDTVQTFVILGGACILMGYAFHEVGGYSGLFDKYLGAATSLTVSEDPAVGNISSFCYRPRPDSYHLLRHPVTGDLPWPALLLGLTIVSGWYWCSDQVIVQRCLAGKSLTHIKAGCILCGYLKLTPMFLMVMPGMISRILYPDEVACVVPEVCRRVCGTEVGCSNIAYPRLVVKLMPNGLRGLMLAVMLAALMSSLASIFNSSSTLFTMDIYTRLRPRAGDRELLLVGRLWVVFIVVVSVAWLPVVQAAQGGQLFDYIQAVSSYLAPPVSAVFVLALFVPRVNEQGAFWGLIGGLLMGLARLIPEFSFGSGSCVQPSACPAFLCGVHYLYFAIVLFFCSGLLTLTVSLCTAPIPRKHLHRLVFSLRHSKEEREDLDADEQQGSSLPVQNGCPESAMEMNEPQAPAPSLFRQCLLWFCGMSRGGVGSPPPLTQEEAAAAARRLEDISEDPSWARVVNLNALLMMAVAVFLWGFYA
Description: (§1) Biological Example 1: SGLT1 and SGLT2 In Vitro Assays
(§2) The ability of the compounds of formula (I) of the present invention to treat an SGLT-mediated condition was determined using the following procedures:
(§3) SGLT1 and SGLT2 were cloned in form of cDNA from human small intestine (Genbank M24847), and from human kidney (Genbank M95549), respectively. Subsequently, each full cDNA was subcloned into pcDNA with each construct's integrity verified through follow-on sequencing. To generate CHO-K1 cells that stably express human SGLT1 or human SGLT2, CHO-K1 cells were transfected using DMRIE-C reagent (Life Technologies, Gaithersburg, Md.). Transfected cells were then selected in the presence of 500 μg/ml of the Geneticin (G418 Cellgro Catalog No. 30234-CI)
(§4) Individual clones were then characterized using the following cell-based assay for sodium-dependent glucose transport:
(§5) Inhibition of SGLT1 and SGLT2 activity was assessed in CHO K1 cells stably expressing either human SGLT1 or SGLT2, using the SGLT specific glucose analog methyl-glucopyranoside (Sigma Catalog No. M-9376). Cells were plated (45,000 cells/well) in white wall 96-well plates (COSTAR, Cat #3903) for 24 hours in growth medium, then a final concentration of 10 mM Na-Butyrate (ALDRICH Cat #30341-0) was added. The cells were incubated for 24 hours. On the day of the assay, cells were rinsed and treated with test compounds (at concentrations of 0.001 μM to 10 μM) in assay buffer (50 mM HEPES, 20 mM Tris base, 5 mM KCl, 1 mM MgCl2, 1 mM CaCl2 and 137 mM NaCl, pH 7.4) for 10 minutes. Cells were then incubated with ^14C-a-methyl-d-glucopyranoside (AMG, Amersham Catalog No. CFB 76), using 0.07 μCi per well in 500 µM AMG final concentration. The cells were incubated for 2 hours at 37° C. with 5% CO2 and washed two times with ice-cold Phosphate Buffer Solution (CELLGRO Catalog No. 21030-CV). The cells were then solubilized by adding 60 μl of MICROSCINT™ 20 and the Na-dependent ^14C-AMG uptake was quantified by measuring radioactivity. Plates were counted in a TopCount (Packard, Meriden, Conn.)
(§6) Representative compounds of the present invention were tested according to the procedures as described in Biological Example 1 and 2 above, with results as listed in Table 5, below. Results are reported as the %-inhibition or IC50 value. Variability for the functional assay was typically within 20%.

human SGLT1 = target: T2, human SGLT1 (Homo sapiens, UniProt P13866); experiment: SGLT1 in vitro assay: Na-dependent 14C-AMG uptake in CHO-K1 cells stably expressing human SGLT1; type: cell-based; conditions: CHO-K1 cells stably expressing human SGLT1, 14C-AMG uptake; for inhibition at 0.3 µM: read-out: SGLT1 % Inh @ 0.3 μM; for IC50: compounds of formula (I) where R0 is fluoro
T2 construct: expressed in transfected cells
T2 sequence (P13866 1-664): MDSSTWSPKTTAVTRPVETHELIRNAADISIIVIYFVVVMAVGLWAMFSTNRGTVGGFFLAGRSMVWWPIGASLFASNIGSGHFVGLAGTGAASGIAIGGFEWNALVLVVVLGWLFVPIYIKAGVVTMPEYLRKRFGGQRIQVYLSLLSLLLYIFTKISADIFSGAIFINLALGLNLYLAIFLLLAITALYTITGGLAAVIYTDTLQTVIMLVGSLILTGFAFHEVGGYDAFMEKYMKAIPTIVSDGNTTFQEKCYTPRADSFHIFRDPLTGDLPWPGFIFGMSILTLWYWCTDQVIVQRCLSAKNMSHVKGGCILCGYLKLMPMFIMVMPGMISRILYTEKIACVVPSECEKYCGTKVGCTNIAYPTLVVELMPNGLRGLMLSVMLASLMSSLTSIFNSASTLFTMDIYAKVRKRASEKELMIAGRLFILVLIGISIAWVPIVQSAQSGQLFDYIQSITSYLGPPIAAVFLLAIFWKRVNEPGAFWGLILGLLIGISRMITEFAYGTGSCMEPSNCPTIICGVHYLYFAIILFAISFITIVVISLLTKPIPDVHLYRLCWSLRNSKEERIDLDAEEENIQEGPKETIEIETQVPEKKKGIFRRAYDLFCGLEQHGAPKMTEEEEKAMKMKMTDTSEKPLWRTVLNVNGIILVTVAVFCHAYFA
Description: as §1, §2, §3, §4, §5, §6

SMILES | SGLT2 % Inh @ 0.3 μM (human SGLT2) [%] | SGLT1 % Inh @ 0.3 μM (human SGLT1) [%] | inhibition at 0.3 µM (human SGLT2) [%] | IC50 (human SGLT2) [nM] | inhibition at 0.3 µM (human SGLT1) [%] | IC50 (human SGLT1) [nM]
COC(=O)N1CCc2sc(Cc3cc([C@@H]4O[C@H](CO)C(F)(F)[C@H](O)[C@H]4O)c(OC)cc3Cl)cc2C1 [Compound 65] | 56.1 | 16.9 |  |  |  | 
Cc1cc(O)c([C@@H]2O[C@H](CO)C(F)(F)[C@H](O)[C@H]2O)cc1Cc1ccc(-c2ccc(F)cc2)s1 [Compound 68] | 69.5 | 26.6 |  |  |  | 
Cc1cc(O)c([C@@H]2O[C@H](CO)C(F)(F)[C@H](O)[C@H]2O)cc1Cc1cc2c(s1)CCN(C(=O)C1CCCC1)C2 [Compound 69] | 67.1 | 64.0 |  |  |  | 
Cc1cc(O)c([C@@H]2O[C@H](CO)C(F)(F)[C@H](O)[C@H]2O)cc1Cc1ccc(-c2cccc(F)n2)s1 [Compound 70] |  |  | 76.2 | 2.7 | 61.2 | 120
Cc1cc(O)c([C@@H]2O[C@H](CO)C(F)(F)[C@H](O)[C@H]2O)cc1Cc1ccc(-c2cccc(F)c2)s1 [Compound 71] | 76.8 | 21.6 |  |  |  | 
CC(=O)N1CCc2sc(Cc3cc([C@@H]4O[C@H](CO)C(F)(F)[C@H](O)[C@H]4O)c(O)cc3Cl)cc2C1 [Compound 72] | 73.0 | 38.5 |  |  |  | 
COc1cc(Cl)c(Cc2cc3c(s2)CCN(C(C)=O)C3)cc1[C@@H]1O[C@H](CO)C(F)(F)[C@H](O)[C@H]1O [Compound 73] | 55.0 | 21.4 |  |  |  | 
COC(=O)N1CCc2sc(Cc3cc([C@@H]4O[C@H](CO)C(F)(F)[C@H](O)[C@H]4O)c(OC)cc3OC)cc2C1 [Compound 75] | 52.3 | 15.5 |  |  |  | 
COc1c([C@@H]2O[C@H](CO)C(F)(F)[C@H](O)[C@H]2O)cc(Cc2ccc3c(c2)OCCO3)c2c1CCO2 [Compound 76] |  |  | 84.4 | 5 | 44.3 | 302
COc1cc(OC)c([C@@H]2O[C@H](CO)C(F)(F)[C@H](O)[C@H]2O)cc1Cc1cc2c(s1)CCN(C(C)=O)C2 [Compound 77] | 51.4 | 22.6 |  |  |  | 
COc1cc(C)c(Cc2cc3c(s2)CCN(C(=O)N2CCCC2)C3)cc1[C@@H]1O[C@H](CO)C(F)(F)[C@H](O)[C@H]1O [Compound 78] | 71.5 | 28.0 |  |  |  | 
Cc1ccc([C@@H]2O[C@H](CO)C(F)(F)[C@H](O)[C@H]2O)cc1Cc1cc2c(s1)CCN(C(=O)c1nccs1)C2 [Compound 79] | 63.6 | 20.3 |  |  |  | 
Cc1cc(O)c([C@@H]2O[C@H](CO)C(F)(F)[C@H](O)[C@H]2O)cc1Cc1cc2c(s1)CCN(C(=O)c1nccs1)C2 [Compound 80] | 82.1 | 31.1 |  |  |  | 
Cc1cc(O)c([C@@H]2O[C@H](CO)C(F)(F)[C@H](O)[C@H]2O)cc1Cc1cc2c(s1)CCN(C#N)C2 [Compound 82] | 85.4 | 50.3 |  | 5.5 |  | 505
Cc1cnc(C(=O)N2CCc3sc(Cc4cc([C@@H]5O[C@H](CO)C(F)(F)[C@H](O)[C@H]5O)c(O)cc4C)cc3C2)s1 [Compound 83] |  |  | 85.4 | 9.7 | 43.3 | 449
Cc1ccc([C@@H]2O[C@H](CO)C(F)(F)[C@H](O)[C@H]2O)cc1Cc1cc2c(s1)CCN(C(=O)C1CCCC1)C2 [Compound 84] | 54.4 | 28.5 |  |  |  | 
COc1ccc(Cc2ccc(O)c([C@@H]3O[C@H](CO)C(F)(F)[C@H](O)[C@H]3O)c2)cc1 [Compound 86] | 69.5 | 17.4 |  |  |  | 
COc1ccc(Cc2cc([C@@H]3O[C@H](CO)C(F)(F)[C@H](O)[C@H]3O)c(OC)cc2Cl)cc1 [Compound 87] | 76.0 | 8.4 |  |  |  | 
CCc1cc(OC)c([C@@H]2O[C@H](CO)C(F)(F)[C@H](O)[C@H]2O)cc1Cc1ccc(OC)cc1 [Compound 89, (2S,3R,4R,6R)-2-[4-ethyl-2-methoxy-5-[(4-methoxyphenyl)methyl]phenyl]-5,5-difluoro-6-(hydroxymethyl)tetrahydropyran-3,4-diol] |  |  | 87.7 | 4.7 | 48.1 | 636
COc1ccc(Cc2cc([C@@H]3O[C@H](CO)C(F)(F)[C@H](O)[C@H]3O)c(OC)cc2OC)cc1 [Compound 92] | 81.9 | 30.2 |  |  |  | 
COc1c(Cc2ccc3c(c2)CCCO3)cc([C@@H]2O[C@H](CO)C(F)(F)[C@H](O)[C@H]2O)c2c1CCO2 [Compound 93] | 80.4 | 34.5 |  |  |  | 
CCc1cc(O)c([C@@H]2OC3(CC3)C(F)(F)[C@H](O)[C@H]2O)cc1Cc1ccc2c(c1)OCCO2 [Compound 94] |  |  | 87.8 | 16.4 | 73 | 66
Cc1cc(O)c([C@@H]2O[C@H](CO)C(F)(F)[C@H](O)[C@H]2O)cc1Cc1ccc(OC(F)F)cc1 [Compound 96, (2S,3R,4R,6R)-2-[5-[[4-(difluoromethoxy)phenyl]methyl]-2-hydroxy-4-methyl-phenyl]-5,5-difluoro-6-(hydroxymethyl)tetrahydropyran-3,4-diol] |  |  | 81.4 | 4.8 | 49.1 | 318
Cc1cc(O)c([C@@H]2O[C@H](CO)C(F)(F)[C@H](O)[C@H]2O)cc1Cc1ccc(OC(F)(F)F)cc1 [Compound 99, (2S,3R,4R,6R)-5,5-difluoro-2-(2-hydroxy-4-methyl-5-(4-(trifluoromethoxy)benzyl)phenyl)-6-(hydroxymethyl)-tetrahydro-2H-pyran-3,4-diol] |  |  | 84.7 |  | 17.3 | 
COc1cc(C)c(Cc2ccc(OC(F)(F)F)cc2)cc1[C@@H]1O[C@H](CO)C(F)(F)[C@H](O)[C@H]1O [Compound 101] | 77.2 | 30.3 |  |  |  | 
